Test results taken from US8946439B2, “Amide compounds, compositions and uses thereof” (Evotec AG, priority 2008, dated 2015).

Key:
hP2X3 = molecular target: T1, hP2X3 (Homo sapiens, UniProt P56373); assay: Calcium uptake assay (P2X antagonist assay), P2X3 homomer; type: cell-based; conditions: calcium uptake assay, hP2X3; read-out: IC50 hP2X3 (nM), Ca Influx
T1 construct: expressed in transfected cells; host or cells: e.g. HEK293 or 1321N1
T1 sequence (P56373 1-397): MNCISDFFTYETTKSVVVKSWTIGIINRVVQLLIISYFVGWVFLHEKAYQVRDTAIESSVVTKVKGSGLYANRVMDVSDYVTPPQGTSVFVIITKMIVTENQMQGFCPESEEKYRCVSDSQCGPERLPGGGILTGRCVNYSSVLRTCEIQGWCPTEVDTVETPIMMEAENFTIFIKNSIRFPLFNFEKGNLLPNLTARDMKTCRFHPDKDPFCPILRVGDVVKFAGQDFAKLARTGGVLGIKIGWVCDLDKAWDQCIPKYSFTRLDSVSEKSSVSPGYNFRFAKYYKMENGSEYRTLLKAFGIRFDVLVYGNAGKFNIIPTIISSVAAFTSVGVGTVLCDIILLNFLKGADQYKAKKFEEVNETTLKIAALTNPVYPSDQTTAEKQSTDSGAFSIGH
Summary of the method: (§1)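 Stably or transiently transfected HEK293 or 1321N1 cells; the heteromer is made by adding P2X3 to a P2X2-stable line, with heteromer function isolated pharmacologically. The peak-minus-baseline FLIPR calcium signal gives % inhibition and a 4-parameter-logistic IC50.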

hP2X2/3H = molecular target: T2, hP2X2/3H (Homo sapiens, UniProt P56373+Q9UBL9); assay: Calcium uptake assay (P2X antagonist assay), P2X2/3 heteromer; type: cell-based; conditions: calcium uptake assay, hP2X2/3H; read-out: IC50 hP2X2/3H (nM), Ca Influx
T2 construct: expressed in transfected cells; host or cells: e.g. HEK293 or 1321N1
T2 sequence (Q9UBL9 1-471): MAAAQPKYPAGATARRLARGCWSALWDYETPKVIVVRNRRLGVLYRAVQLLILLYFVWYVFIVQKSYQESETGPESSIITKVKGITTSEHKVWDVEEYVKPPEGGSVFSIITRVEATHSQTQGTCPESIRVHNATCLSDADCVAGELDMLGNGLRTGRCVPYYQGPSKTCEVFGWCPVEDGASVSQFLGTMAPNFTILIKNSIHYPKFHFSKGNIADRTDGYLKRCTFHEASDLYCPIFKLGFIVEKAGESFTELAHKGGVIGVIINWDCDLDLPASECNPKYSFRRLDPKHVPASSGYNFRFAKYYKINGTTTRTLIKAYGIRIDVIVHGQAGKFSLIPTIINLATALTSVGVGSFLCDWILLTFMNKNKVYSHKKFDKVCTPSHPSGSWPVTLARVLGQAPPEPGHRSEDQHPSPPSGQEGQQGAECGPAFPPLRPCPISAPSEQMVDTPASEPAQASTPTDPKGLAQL
T2 sequence (P56373 1-397): T1 sequence (P56373 1-397)
Summary of the method: as §1

Row | Compound | IC50 (hP2X3) | IC50 (hP2X2/3H)
1 | Cc1ccc(CNC(=O)c2cc(-c3ccc(C)c(F)c3)cc(S(C)(=O)=O)c2)cn1 [Compound 137] | 100 to 500 nM | 100 to 500 nM
2 | Cc1ccc(CNC(=O)c2cc(-c3ccc(Cl)cc3)cc(S(C)(=O)=O)c2)cn1 [Compound 138] | 100 to 500 nM | 100 to 500 nM
3 | Cc1ccc(CNC(=O)c2cc(-c3ccc(Cl)c(C(F)(F)F)c3)cc(S(C)(=O)=O)c2)cn1 [Compound 139] | > 1000 nM | > 1000 nM
4 | Cc1ccc(-c2cc(C(=O)NCc3ccc(C)nc3)cc(C(=O)N3C[C@H]4CNC[C@H]4C3)c2)cc1 [Compound 140, 4′-Methyl-N-((6-methylpyridin-3-yl)methyl)-5-((3aR,6aS)-octahydropyrrolo[3,4-c]pyrrole-2-carbonyl)biphenyl-3-carboxamide] | 100 to 500 nM | 100 to 500 nM
5 | Cc1ccc(-c2cc(C(=O)NCc3ccc(C)nc3)cc(C(=O)N3CC4CN(C)CC4C3)c2)cc1 (stereo not shown) [Compound 141] | < 100 nM | 100 to 500 nM
6 | Cc1ccc(-c2cc(C(=O)NCc3ccc(C)nc3)cc(C(=O)N3CC[C@H](N(C)C)C3)c2)cc1 [Compound 142] | < 100 nM | 100 to 500 nM
7 | Cc1ccc(-c2cc(C(=O)NCc3ccc(C)nc3)cc(C(=O)N3CC[C@@H](N(C)C)C3)c2)cc1 [Compound 143] | 100 to 500 nM | 501 to 1000 nM
8 | COc1ccc(CNC(=O)c2cc(-c3ccc(C)cc3)cc(S(C)(=O)=O)c2)cn1 [Compound 144] | 100 to 500 nM | < 100 nM
9 | Cc1ccc(-c2cc(C(=O)NCc3ccc(C(F)(F)F)c(F)c3)cc(C(=O)N3CCCC3)c2)nc1 [Compound 145] | 100 to 500 nM | 100 to 500 nM
10 | Cc1ccc(-c2cc(C(=O)NCc3ccc(C(F)(F)F)nc3)cc(C(=O)N3CC[C@@H](O)C3)c2)nc1 [Compound 146] | < 100 nM | < 100 nM
11 | Cc1ccc(-c2cc(C(=O)N[C@H](C)c3cnc(C)nc3)cc(S(=O)(=O)N3CCCC3)c2)c(C#N)c1 [Compound 147] | < 100 nM | > 1000 nM
12 | Cc1ccc(-c2cc(C(=O)NCc3ccc(C)nc3)cc(S(=O)(=O)N3CCCC3)c2)c(C#N)c1 [Compound 148] | < 100 nM | > 1000 nM
13 | Cc1ccc(-c2cc(C(=O)N[C@H](C)c3cnc(C)c(Cl)c3)cc(S(C)(=O)=O)c2)cc1 [Compound 149] | 100 to 500 nM | 100 to 500 nM
14 | Cc1ccc(-c2cc(C(=O)N[C@H](C)c3ccc(C(F)(F)F)nc3)cc(C(=O)N3CC[C@@H](O)C3)c2)nc1 [Compound 150] | < 100 nM | < 100 nM
15 | Cc1ccc(-c2cc(C(=O)NCc3ccc(C(F)(F)F)c(F)c3)cc(C(=O)N3CC[C@@H](O)C3)c2)nc1 [Compound 151] | < 100 nM | 100 to 500 nM
16 | COc1ccc(CNC(=O)c2cc(C(=O)N3CCCC3)cc(-c3ccc(C)cc3)c2)cn1 [Compound 152] | < 100 nM | < 100 nM
17 | Cc1ccc(-c2cc(C#N)cc(C(=O)NCc3ccc(C)nc3)c2)cc1 [Compound 153] | 100 to 500 nM | 100 to 500 nM
18 | Cc1ccc(-c2cc(C#N)cc(C(=O)NCc3cnc(C)nc3)c2)cc1 [Compound 154] | 100 to 500 nM | 100 to 500 nM
19 | Cc1ccc(-c2cc(C#N)cc(C(=O)NCc3cnc(C)nc3)c2)nc1 [Compound 155] | > 1000 nM | > 1000 nM
20 | Cc1ccc(-c2cc(C(=O)NCc3ccc(C(F)(F)F)nc3)cc(C(=O)N3CC[C@@H](O)C3)c2)cc1 [Compound 156] | < 100 nM | 100 to 500 nM
21 | Cc1ccc(-c2cc(C(=O)N[C@H](C)c3cnc(C)nc3)cc(C(=O)N3CC[C@@H](O)C3)c2)cc1 [Compound 157] | < 100 nM | < 100 nM
22 | Cc1ccc(-c2cc(C(=O)N[C@H](C)c3ccc(C(F)(F)F)nc3)cc(C(=O)N3CC[C@@H](O)C3)c2)cc1 [Compound 158] | < 100 nM | < 100 nM
23 | Cc1ccc(-c2cc(C(=O)NCc3cccc(-n4cnnc4)c3)cc(C(=O)N3CCCC3)c2)cc1 [Compound 159] | 100 to 500 nM | 100 to 500 nM
